The values below come from patent publication US20240182481A1 (Tango Therapeutics, Inc., priority 2021, published 2024).

One experiment deals with USP1-UAF1 (Homo sapiens, UniProt O94782). The experiment in a line: Ubiquitin Rhodamine assay for USP1-UAF1 activity. Type of experiment: biochemical. The procedure: Certain compounds of the disclosure were assessed for USP1-UAF1 activity in a Ubiquitin Rhodamine assay as described in Example 135.
For another experiment, the system named is monoubiquitinated PCNA. Put plainly: AlphaLISA assay measuring monoubiquitinated PCNA in MDA-MB-436. The experiment is classed as cell-based. To be noted: Homo sapiens, read-out: Alpha LISA IC50. The source says: Table 1 also indicates IC50 values for exemplary compounds in an AlphaLISA assay measuring monoubiquitinated PCNA in a BRCA1 mutant cell line (MDA-MB-436; column 7).

For experiment [1], the system named is HCC1954 (BRCA1 WT) cell line. The experiment in a line: Viability assay in BRCA1 WT cell line HCC1954. The experiment is classed as cell-based. To be noted: Homo sapiens, read-out: HCC 1954 IC50 rel IC50. The source says: (§1) Table 1 also indicates IC50 values in a viability assay for a non-isogenic pair of BRCA1 mutant (column 5—MDA-MB-436) and BRCA1 WT (column 6—HCC1954) cell lines. These values indicate the effect of treatment with compound on cell survival.

Experiment [2] deals with MDA-MB-436 (BRCA1 mutant) cell line. Put plainly: Viability assay in BRCA1 mutant cell line MDA-MB-436. Type of experiment: cell-based. To be noted: Homo sapiens, BRCA1 mutant MDA-MB-436, read-out: MDA-MB-436 rel IC50.
Excerpt: as §1

The term IC50 denotes the point on the concentration scale where inhibition reaches its midpoint.

Read-outs that look alike come from different tables or passages of the source.

Sequence of USP1-UAF1 (O94782 whole entry): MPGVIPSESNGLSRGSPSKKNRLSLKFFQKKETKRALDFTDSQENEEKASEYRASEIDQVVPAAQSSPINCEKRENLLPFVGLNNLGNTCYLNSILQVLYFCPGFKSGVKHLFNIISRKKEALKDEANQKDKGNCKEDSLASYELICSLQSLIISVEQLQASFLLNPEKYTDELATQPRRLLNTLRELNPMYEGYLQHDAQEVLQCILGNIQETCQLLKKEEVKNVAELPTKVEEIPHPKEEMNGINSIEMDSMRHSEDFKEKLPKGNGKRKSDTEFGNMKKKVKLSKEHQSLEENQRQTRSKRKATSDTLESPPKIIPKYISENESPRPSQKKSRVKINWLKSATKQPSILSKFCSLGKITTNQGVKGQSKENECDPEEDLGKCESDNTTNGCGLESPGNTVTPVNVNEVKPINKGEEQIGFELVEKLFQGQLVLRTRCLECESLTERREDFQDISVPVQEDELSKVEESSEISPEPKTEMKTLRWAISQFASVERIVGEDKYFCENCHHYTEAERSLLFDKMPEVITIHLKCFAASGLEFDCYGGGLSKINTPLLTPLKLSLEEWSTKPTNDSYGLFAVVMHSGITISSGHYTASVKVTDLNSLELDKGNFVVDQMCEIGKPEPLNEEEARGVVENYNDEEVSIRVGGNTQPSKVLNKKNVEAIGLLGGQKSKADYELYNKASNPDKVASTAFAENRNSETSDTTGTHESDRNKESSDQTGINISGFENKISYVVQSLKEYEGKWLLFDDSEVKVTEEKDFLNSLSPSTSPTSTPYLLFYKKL
Sequence of USP1-UAF1 (Q8TAF3 whole entry partner): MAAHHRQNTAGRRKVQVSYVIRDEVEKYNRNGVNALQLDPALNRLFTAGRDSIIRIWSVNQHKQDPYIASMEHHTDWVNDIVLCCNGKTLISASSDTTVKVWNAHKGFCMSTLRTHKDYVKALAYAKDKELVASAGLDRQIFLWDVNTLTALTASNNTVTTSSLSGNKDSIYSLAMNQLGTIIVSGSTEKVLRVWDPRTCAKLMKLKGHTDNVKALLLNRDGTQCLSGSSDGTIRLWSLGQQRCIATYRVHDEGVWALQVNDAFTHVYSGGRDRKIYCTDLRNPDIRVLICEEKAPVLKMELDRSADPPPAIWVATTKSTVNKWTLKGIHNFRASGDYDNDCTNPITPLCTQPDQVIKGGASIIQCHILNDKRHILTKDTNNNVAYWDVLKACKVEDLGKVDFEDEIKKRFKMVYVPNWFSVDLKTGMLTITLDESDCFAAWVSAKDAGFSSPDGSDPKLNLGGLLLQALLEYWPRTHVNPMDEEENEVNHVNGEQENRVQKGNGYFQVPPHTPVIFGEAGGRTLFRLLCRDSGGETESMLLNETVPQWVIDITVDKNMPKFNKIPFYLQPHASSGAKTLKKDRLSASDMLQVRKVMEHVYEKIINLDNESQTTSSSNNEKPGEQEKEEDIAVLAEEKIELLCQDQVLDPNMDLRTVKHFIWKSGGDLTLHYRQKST

Take `[2H]C([2H])([2H])n1cc(C(F)(F)F)nc1-c1ccc(Cc2c[nH]c3cnc(-c4c(OC)ncnc4C4CC4)nc23)cc1` [Compound 135, 2-(4-cyclopropyl-6-methoxy-pyrimidin-5-yl)-7-[[4-[1-(trideuteriomethyl)-4-(trifluoromethyl)imidazol-2-yl]phenyl]methyl]-5H-pyrrolo[3,2-d]pyrimidine]: the IC50 was less than 0.03 µM against USP1-UAF1; less than 0.1 µM with monoubiquitinated PCNA; no less than 10 µM in experiment [1]; less than 0.1 µM in experiment [2] (MDA-MB-436, viability).
In the case of `COc1ncnc(C2CC2)c1-c1ncc2[nH]c(F)c(Cc3ccc(-c4nc(C(F)(F)F)cn4C)cc3)c2n1` [Compound 181, 2-(4-cyclopropyl-6-methoxy-pyrimidin-5-yl)-6-fluoro-7-[[4-[1-methyl-4-(trifluoromethyl)imidazol-2-yl]phenyl]methyl]-5H-pyrrolo[3,2-d]pyrimidine], the IC50 on USP1-UAF1 was less than 0.03 µM; in the experiment on monoubiquitinated PCNA, less than 0.1 µM; in experiment [1] it was no less than 10 µM; in experiment [2] (MDA-MB-436, viability), less than 0.1 µM.
On to `COc1ncnc(C2CC2)c1-c1nc(C)c2[nH]nc(Cc3ccc(-c4nc(C(F)(F)F)cn4C)cc3)c2n1` [Compound 115, 5-(4-cyclopropyl-6-methoxypyrimidin-5-yl)-7-methyl-3-(4-(1-methyl-4-(trifluoromethyl)-1H-imidazol-2-yl)benzyl)-1H-pyrazolo[4,3-d]pyrimidine], for which the IC50 was less than 0.03 µM at USP1-UAF1; less than 0.1 µM in the experiment with monoubiquitinated PCNA; no less than 10 µM in experiment [1]; less than 0.1 µM in experiment [2] (MDA-MB-436, viability).
Take `COc1ncnc(C2CC2)c1-c1ncc2[nH]nc(Cc3ccc(-c4nc(C(F)(F)F)cn4C4COC4)cc3)c2n1` [Compound 133, 5-(4-cyclopropyl-6-methoxy-pyrimidin-5-yl)-3-[[4-[1-(oxetan-3-yl)-4-(trifluoromethyl)imidazol-2-yl]phenyl]methyl]-1H-pyrazolo[4,3-d]pyrimidine]: the half-inhibitory concentration (IC50) against USP1-UAF1 is 0.03 to 0.1 µM; in the experiment on monoubiquitinated PCNA, 0.1 to 0.25 µM; in experiment [1], no less than 10 µM; in experiment [2] (MDA-MB-436, viability), less than 0.1 µM.
For `COc1ncnc(C2CC2)c1-c1cc2c(Cc3ccc(-c4nc(C(F)(F)F)cn4C)cc3)n[nH]c2cn1` [Compound 177, 5-(4-cyclopropyl-6-methoxypyrimidin-5-yl)-3-(4-(1-methyl-4-(trifluoromethyl)-1H-imidazol-2-yl)benzyl)-1H-pyrazolo[3,4-c]pyridine], the IC50 on USP1-UAF1 is less than 0.03 µM; in the experiment on monoubiquitinated PCNA, less than 0.1 µM; in experiment [1], no less than 10 µM; in experiment [2] (MDA-MB-436, viability), less than 0.1 µM.
`CCn1cc(C(F)(F)F)nc1-c1ccc(C(O)c2c[nH]c3cnc(-c4c(OC)ncnc4C4CC4)nc23)cc1` (centres unmarked) [Compound 33]: the IC50 at USP1-UAF1 was 0.1 to 10 µM; with monoubiquitinated PCNA, 0.25 to 10 µM; in experiment [1] it was no less than 10 µM; in experiment [2] (MDA-MB-436, viability) it was 0.25 to 10 µM.
Take `[2H]C([2H])([2H])Oc1ncnc(C2CC2)c1-c1ncc2[nH]cc(Cc3ccc(-c4nc(C(F)(F)F)cn4C)cc3)c2n1` [Compound 204, 2-[4-cyclopropyl-6-(trideuteriomethoxy)pyrimidin-5-yl]-7-[[4-[1-methyl-4-(trifluoromethyl)imidazol-2-yl]phenyl]methyl]-5H-pyrrolo[3,2-d]pyrimidine]: the IC50 is less than 0.03 µM on USP1-UAF1; less than 0.1 µM in the experiment on monoubiquitinated PCNA; no less than 10 µM in experiment [1]; less than 0.1 µM in experiment [2] (MDA-MB-436, viability).
`COc1ncnc(C2CC2)c1-c1ncc2c(n1)c(Cc1ccc(-c3nc(C(F)(F)F)cn3C)cc1)cn2C(C)=O` [Compound 93, 1-[2-(4-cyclopropyl-6-methoxy-pyrimidin-5-yl)-7-[[4-[1-methyl-4-(trifluoromethyl)imidazol-2-yl]phenyl]methyl]pyrrolo[3,2-d]pyrimidin-5-yl]ethanone]: the half-inhibitory concentration (IC50) against USP1-UAF1 is 0.03 to 0.1 µM; in the experiment on monoubiquitinated PCNA, less than 0.1 µM; in experiment [1], no less than 10 µM; in experiment [2] (viability) it was less than 0.1 µM.
Consider `COc1nccc(C2CC2)c1-c1ncc2[nH]nc(Cc3ccc(-c4nc(C(F)(F)F)cn4C)cc3)c2n1` [Compound 205, 5-(4-cyclopropyl-2-methoxy-3-pyridyl)-3-[[4-[1-methyl-4-(trifluoromethyl)imidazol-2-yl]phenyl]methyl]-1H-pyrazolo[4,3-d]pyrimidine], for which the half-inhibitory concentration (IC50) on USP1-UAF1 is less than 0.03 µM; in the experiment with monoubiquitinated PCNA it was less than 0.1 µM; in experiment [1], no less than 10 µM; in experiment [2] (MDA-MB-436, viability), less than 0.1 µM.
For the compound `COc1cccc(OC)c1-c1ncc2[nH]nc(Cc3ccc(-c4nc(C(F)(F)F)cn4C)cc3)c2n1` [Compound 136], the IC50 is less than 0.03 µM at USP1-UAF1; 0.25 to 10 µM with monoubiquitinated PCNA; no less than 10 µM in experiment [1]; 0.1 to 0.25 µM in experiment [2] (MDA-MB-436, viability).
In the case of `COc1ncnc(C2CC2)c1-c1ncc2[nH]cc([C@@H](c3ccc(-c4nc(C(F)(F)F)cn4C)cc3)C(C)C)c2n1` (single isomer, unassigned) [Compound 151], the half-maximal inhibitory concentration (IC50) on USP1-UAF1 is 0.03 to 0.1 µM; in the experiment on monoubiquitinated PCNA, less than 0.1 µM; in experiment [1] it was 0.25 to 10 µM; in experiment [2] (MDA-MB-436, viability) it was 0.1 to 0.25 µM.
As for `Cn1cc(C(F)(F)F)nc1-c1ccc(Cc2c[nH]c3cnc(-c4cccnc4OCC(F)(F)F)nc23)cc1` [Compound 78], the IC50 was less than 0.03 µM against USP1-UAF1; less than 0.1 µM in the experiment with monoubiquitinated PCNA; 0.25 to 10 µM in experiment [1]; less than 0.1 µM in experiment [2] (MDA-MB-436, viability).
Take `CC(C)c1ccccc1-c1ncc2[nH]cc([C@H](C)c3ccc(-c4nc(C(F)(F)F)cn4C)cc3)c2n1` (single isomer, unassigned) [Compound 64]: the IC50 against USP1-UAF1 is less than 0.03 µM; in the experiment on monoubiquitinated PCNA, less than 0.1 µM; in experiment [1] it was 0.25 to 10 µM; in experiment [2] (MDA-MB-436, viability), less than 0.1 µM.
Regarding `COc1ncnc(C2(F)CC2)c1-c1ncc2[nH]cc(Cc3ccc(-c4nc(C(F)(F)F)cn4C)cc3)c2n1` [Compound 87], the IC50 is less than 0.03 µM against USP1-UAF1; less than 0.1 µM in the experiment with monoubiquitinated PCNA; no less than 10 µM in experiment [1]; less than 0.1 µM in experiment [2] (MDA-MB-436, viability).
Consider `COc1ncnc(C2CC2)c1-c1ncc2[nH]nc(Cc3ccc(-c4nc(C(F)(F)F)cn4C)cc3F)c2n1` [Compound 189, 5-(4-cyclopropyl-6-methoxy-pyrimidin-5-yl)-3-[[2-fluoro-4-[1-methyl-4-(trifluoromethyl)imidazol-2-yl]phenyl]methyl]-1H-pyrazolo[4,3-d]pyrimidine], for which the 50% inhibitory concentration (IC50) on USP1-UAF1 is 0.03 to 0.1 µM; with monoubiquitinated PCNA, less than 0.1 µM; in experiment [1], no less than 10 µM; in experiment [2] (MDA-MB-436, viability), less than 0.1 µM.
In the case of `COc1ncnc(C(C)(C)C)c1-c1ncc2[nH]cc(Cc3ccc(-c4nc(C(F)(F)F)cn4C)cc3)c2n1` [Compound 124, 2-(4-tert-butyl-6-methoxy-pyrimidin-5-yl)-7-[[4-[1-methyl-4-(trifluoromethyl)imidazol-2-yl]phenyl]methyl]-5H-pyrrolo[3,2-d]pyrimidine], the half-maximal inhibitory concentration (IC50) is 0.03 to 0.1 µM at USP1-UAF1; 0.1 to 0.25 µM in the experiment with monoubiquitinated PCNA; no less than 10 µM in experiment [1]; less than 0.1 µM in experiment [2] (MDA-MB-436, viability).
Regarding `COCc1[nH]c2cnc(-c3c(OC)ncnc3C3CC3)nc2c1Cc1ccc(-c2nc(C(F)(F)F)cn2C)cc1` [Compound 94, 2-(4-cyclopropyl-6-methoxy-pyrimidin-5-yl)-6-(methoxymethyl)-7-[[4-[1-methyl-4-(trifluoromethyl)imidazol-2-yl]phenyl]methyl]-5H-pyrrolo[3,2-d]pyrimidine], the IC50 is less than 0.03 µM on USP1-UAF1; less than 0.1 µM in the experiment on monoubiquitinated PCNA; no less than 10 µM in experiment [1]; less than 0.1 µM in experiment [2] (MDA-MB-436, viability).
